Values after ≈ are worked out from the molar mass of the structure shown. Where a SMILES comes first, the peptide text is derived from it.
Key:
S. aureus ATCC 6538P = experiment: Antimicrobial assay (MIC); format: cell-based, Staphylococcus aureus; details: Mueller-Hinton broth supplemented with 0.9% NaCl
Description: (§1) The reduction of resazurin to resorufin was measured.

S. aureus MDR CI 119 = experiment: Antimicrobial assay (MIC); format: cell-based, Staphylococcus aureus; details: Mueller-Hinton broth supplemented with 0.9% NaCl
Description: as §1

S. aureus ATCC 25923 = experiment: Antimicrobial assay (MIC); format: cell-based, Staphylococcus aureus; details: Mueller–Hinton broth supplemented with 0.9% NaCl
Description: as §1

S. aureus ATCC 29213 = experiment: Antimicrobial assay (MIC); format: cell-based, Staphylococcus aureus; details: Mueller-Hinton broth supplemented with 0.9% NaCl
Description: as §1

Cytotoxicity (MTT assay) = format: cell-based, human; details: human
Description: Hemolytic activity of the peptides was tested against the fresh suspension of human red blood cells (hRBC) using the hemoglobin release assay as described previously. Two experiments were performed with the hRBC from blood samples of independent donors. The quantitative data were represented as average means with standard deviations. The colorimetric 3-(4,5-dimethylthiazol-2-yl)-2,5-diphenyltetrazolium bromide (MTT) dye reduction assay was used to determine the cytotoxicity of the peptides against transformed human embryonic kidney cells (HEK293T). 10^4 cells per well in Dulbecco’s modified Eagle’s medium (DMEM/F12) supplemented with 10% fetal bovine serum (FBS; Invitrogen, Waltham, MA, USA) were placed into 96-well plates and then cultured in the CO2-incubator (5% CO2, 37 °C). After the media were removed, the peptides were dissolved in 100 µL of the same medium and added to cell cultures at different final concentrations. 20 h later, 20 μL of MTT (5 mg/mL; Sigma, St. Louis, MO, USA) was added to each well, and the plates were incubated for 4 h at 37 °C. Then, the media were discarded and a 100 µL dimethyl sulfoxide-isopropanol mixture at a ratio of 1:1 (v/v) was added to each well to dissolve the crystallized formazan. The absorbance at 570 nm was measured by a microplate reader AF2200 (Eppendorf, Hamburg, Germany). The optical density in the wells containing cells cultured without the peptides was assumed to represent 100% cell viability. Two independent experiments were performed for each peptide.

[1] = system: proinflammatory macrophages (MΦ1) from THP-1; experiment: Cytokine response (multiplex xMAP immunoassay); format: cell-based, human; details: 2 µM peptide, 24 h
Description: (§2) Acute monocytic leukemia THP-1 line (ATCC TIB-202) was cultured in complete RPMI 1640 medium (Invitrogen, Waltham, MA, USA) containing 10% FBS, 1× antibiotic-antimycotic solution (Invitrogen, Waltham, MA, USA), and 0.05 mM β-mercaptoethanol, in the CO2-incubator (5% CO2, 37 °C). THP-1 cells were differentiated into proinflammatory macrophages (MΦ1) according to the previously reported protocol. Primary peripheral blood mononuclear cells (PBMC) collected from a healthy donor were purchased from American Type Culture Collection (ATCC PCS-800-011), thawed, and seeded into a 96-well plate one day prior to the experiment at a density of 2 × 10^5 cells/well. Two different cell subpopulations (monocytes and T-/B-/NK-lymphocytes) were isolated from PBMC based on their adherence ability. Macrophages MΦ1 were washed out and seeded into 96-well plates at a density of 10^5 cells/well one day prior to the experiment. The next day medium in each well was replaced by a fresh complete RPMI 1640 medium with or without 2 μM of cathelicidin (VicBac[1–22] or VicBac[1–39]). Cell cultures were kept in a CO2 incubator (5% CO2, 37 °C) for 24 h. Culture supernatants were collected 24 h later and stored at −70 °C degrees less than one week prior to the assessment of analytes. 27 analytes were measured at a protein level by multiplex xMAP technology using the MILLIPLEX MAP Human Cytokine/Chemokine Magnetic Bead Immunology Panel kit (HCYTOMAG-60K-27, Merck, Darmstadt, Germany): eotaxin-1/CCL11, TGFα, GM-CSF, IFNα2, IFNγ, IL-10, IL-12p40, IL-12p70, IL-13, IL-15, sCD40L, IL-17A, IL-1RA, IL-1α, IL-9, IL-1β, IL-2, IL-3, IL-4, IL-5, IL-6, IL-7, IL-8/CXCL8, IP-10/CXCL10, RANTES/CCL5, TNFα, TNFβ. Multiplex-based assay read-out was performed using the MAGPIX system (Merck) with the xPONENT 4.2 software (Merck, Darmstadt, Germany) in accordance with the manufacturer’s instruction with overnight incubation of the samples with primary antibodies. The final analysis was carried out with the MILLIPLEX Analyst v5.1 software (Merck). Measurements were performed twice for each sample. The release of the analytes in control and experimental samples were compared by unpaired two-sample t-test using GraphPad Prism v.8.0.1. The p values ≤ 0.05 were considered significant.

T-/B-/NK-lymphocytes = experiment: Cytokine response (multiplex xMAP immunoassay); format: cell-based, human; details: 2 µM peptide, 24 h
Description: as §2

PBMC = experiment: Cytokine response (multiplex xMAP immunoassay); format: cell-based, human; details: 2 µM peptide, 24 h
Description: as §2

primary monocytes = experiment: Cytokine response (multiplex xMAP immunoassay); format: cell-based, human; details: 2 µM peptide, 24 h
Description: as §2

[2] = system: E. coli BL21 (DE3) Star cell extract, coupled transcription/translation of EGFP; experiment: In vitro transcription/translation inhibition assay (cell-free EGFP synthesis); format: biochemical, Escherichia coli; details: EGFP fluorescence, 2 h, 30 °C; at least two independent experiments in triplicate; read-out: IC50, inhibition of in vitro protein synthesis in the E. coli cell-free system
Description: To investigate the effect of cathelicidins on the coupled transcription/translation process, the peptides were added to a cell-free protein synthesis (CFPS) reaction mix with a plasmid encoding enhanced green fluorescent protein (EGFP) variant (F64L, S65T, Q80R, F99S, M153T, and V163A) under control of the T7 promoter as described previously with some modifications. Briefly, the peptides were dissolved in 0.1% BSA in water. Bac7[1–22] was used as a positive control inhibitor. The fluorescence of the sample without inhibitor was set as the 100% value. The reaction proceeded for 2 h in 96-well v-bottom black polystyrene microplates in a plate shaker (30 °C, 1000 rpm). The fluorescence of the synthesized EGFP was measured with the microplate reader AF2200 (λExc = 488 nm, λEm = 510 nm; Eppendorf, Hamburg, Germany). The experimental data were obtained from at least two independent experiments performed in triplicate. Non-linear regression curves were generated using GraphPad Prism v.8.0.1 (GraphPad Software Inc., San Diego, CA, USA).

CC[C@H](C)[C@H](NC(=O)[C@H](CCCNC(=N)N)NC(=O)[C@@H](N)CCCNC(=N)N)C(=O)N[C@@H](CCCNC(=N)N)C(=O)N[C@@H](CCCNC(=N)N)C(=O)N1CCC[C@H]1C(=O)N[C@@H](CCCNC(=N)N)C(=O)N[C@@H](CC(C)C)C(=O)N1CCC[C@H]1C(=O)N[C@@H](CCCNC(=N)N)C(=O)N1CCC[C@H]1C(=O)N[C@@H](CCCNC(=N)N)C(=O)N[C@H](C(=O)N1CCC[C@H]1C(=O)N[C@@H](CCCNC(=N)N)C(=O)N1CCC[C@H]1C(=O)N[C@@H](CCCNC(=N)N)C(=O)N[C@H](C(=O)N1CCC[C@H]1C(=O)N1CCC[C@H]1C(=O)N[C@@H](CCCNC(=N)N)C(=O)N[C@H](C(=O)N1CCC[C@H]1C(=O)N[C@@H](CCCNC(=N)N)C(=O)N1CCC[C@H]1C(=O)N[C@H](C(=O)N[C@@H](CC(C)C)C(=O)N1CCC[C@H]1C(=O)N1CCC[C@H]1C(=O)N1CCC[C@H]1C(=O)N[C@@H](CCCNC(=N)N)C(=O)N[C@H](C(=O)N1CCC[C@H]1C(=O)N[C@@H](Cc1ccccc1)C(=O)N1CCC[C@H]1C(=O)N[C@@H](CCCNC(=N)N)C(=O)N[C@@H](Cc1ccccc1)C(=O)N1CCC[C@H]1C(=O)N[C@@H](CCCNC(=N)N)C(N)=O)C(C)C)C(C)C)[C@@H](C)CC)[C@@H](C)CC)C(C)C [VicBac[1-39]] (H-RRIRRPRLPRPRVPRPRIPPRIPRPVLPPPRVPFPRFPR-NH2; N-terminus assumed)
MIC, S. aureus ATCC 6538P (S. aureus ATCC 6538P): 0.25 µM (≈ 1.2 µg/mL)
MIC, S. aureus MDR CI 119 (S. aureus MDR CI 119): > 32 µM
inhibition of S. aureus ATCC 25923 (S. aureus ATCC 25923): could not inhibit
MIC, S. aureus ATCC 29213 (S. aureus ATCC 29213): > 32 µM
IC50 at 20 h (Cytotoxicity (MTT assay)): ~100 µM
TNFα production by macrophages ([1]; control 12.94 pg/mL, significance level quite low): 28.68 pg/mL
IL-1RA on pro-inflammatory macrophages ([1]; control 25.21 pg/mL): 9.47 pg/mL
CXCL10/IP-10 production in the T/B/NK culture (T-/B-/NK-lymphocytes): elevated
IL-1RA on PBMC (PBMC; control 95.52 pg/mL): 18.79 pg/mL
Production of RANTES/CCL5 on PBMC (PBMC; control 286.63 pg/mL): 54.72 pg/mL
Production of TNFα by monocytes (primary monocytes; control 18.47 pg/mL, two biological replications): 11.41 pg/mL
IL-1RA on primary monocytes (primary monocytes; control 163.77 pg/mL): 37.82 pg/mL
Production of RANTES/CCL5 on primary monocytes (primary monocytes; control 284.28 pg/mL): 71.5 pg/mL
IC50 [2]: 0.5 µM

— PMC9146984, “A Novel Proline-Rich Cathelicidin from the Alpaca Vicugna pacos with Potency to Combat Antibiotic-Resistant Bacteria: Mechanism of Action and the Functional Role of the C-Terminal Region” (Membranes, 2022)
